In US20030095958A1, “Inhibitors of bace” (priority 2001, published 2003) one finds Ki data, which are given here for 30 compounds.

The target in this assay is BACE (Homo sapiens, UniProt P56817). Description: Ki Determination for the Inhibition of BACE (FS-1 peptide fluorescence cleavage assay). It counts as biochemical. The note with it: apparent Ki; 50 nM BACE, 10 μM FS-1 substrate, 0.1M sodium acetate pH 4.5. The method, boiled down: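 Human BACE (50 nM) was preincubated 15 min at room temperature with compound (2% DMSO) in 0.1 M sodium acetate pH 4.5, then 10 μM FS-1 peptide was added. Cleavage was followed by fluorescence (ex 355/em 495 nm), and apparent Ki came from fitting to the integrated competitive tight-binding inhibition equation.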

SMILES strings stand for the structures. A value given as a limit tells only on which side of the number the result lay.

Chain of BACE (P56817 46-501): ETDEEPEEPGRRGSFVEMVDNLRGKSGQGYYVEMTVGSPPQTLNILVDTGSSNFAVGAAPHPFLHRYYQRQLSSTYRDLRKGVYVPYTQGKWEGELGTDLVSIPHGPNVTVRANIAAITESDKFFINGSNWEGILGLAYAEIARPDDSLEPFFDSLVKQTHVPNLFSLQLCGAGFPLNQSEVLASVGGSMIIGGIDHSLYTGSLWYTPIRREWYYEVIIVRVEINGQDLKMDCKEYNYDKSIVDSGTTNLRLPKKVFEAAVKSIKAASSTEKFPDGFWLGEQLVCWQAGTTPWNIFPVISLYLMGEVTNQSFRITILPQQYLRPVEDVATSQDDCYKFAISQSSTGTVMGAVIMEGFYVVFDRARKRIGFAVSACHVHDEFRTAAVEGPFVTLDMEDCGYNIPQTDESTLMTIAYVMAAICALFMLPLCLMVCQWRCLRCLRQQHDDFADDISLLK

For `O=C(c1cccc2ccccc12)n1c2c(c3cc(OCc4cccc(C(F)(F)F)c4)ccc31)CCNC2` [Compound 508, Naphthalen-1-yl-[6-(3-trifluoromethyl-benzyloxy)-1,2,3,4-tetrahydro-b-carbolin-9-yl]-methanone], the Ki is less than 3 µM.

As for `FC(F)(F)c1cccc(COc2ccc3c(c2)c2c(n3Cc3cccc4ccccc34)CNCC2)c1` [Compound 509, 9-Naphthalen-1-ylmethyl-6-(3-trifluoromethyl-benzyloxy)-2,3,4,9-tetrahydro-1H-b-carboline], the Ki was less than 3 µM. Turning to `O=C(c1cccc2ccccc12)n1c2c(c3cc(OCc4cc(C(F)(F)F)ccc4Cl)ccc31)CCNC2` [Compound 510, [6-(2-Chloro-5-trifluoromethyl-benzyloxy)-1,2,3,4-tetrahydro-b-carbolin-9-yl]-naphthalen-1-yl-methanone], the Ki was less than 3 µM. Take `O=C(c1ccc2ccccc2c1)n1c2c(c3cc(OCc4cc(C(F)(F)F)ccc4Cl)ccc31)CCNC2` [Compound 511, [6-(2-Chloro-5-trifluoromethyl-benzyloxy)-1,2,3,4-tetrahydro-b-carbolin-9-yl]-naphthalen-2-yl-methanone]: the Ki is less than 3 µM. Consider `FC(F)Oc1ccc(COc2ccc3c(c2)c2c(n3Cc3cccc4ccccc34)CNCC2)cc1` [Compound 512, 6-(4-Difluoromethoxy-benzyloxy)-9-naphthalen-1-ylmethyl-2,3,4,9-tetrahydro-1H-b-carboline], for which the Ki is less than 3 µM. As for `FC(F)Oc1ccc(COc2ccc3c(c2)c2c(n3Cc3ccc4ccccc4c3)CNCC2)cc1` [Compound 513, 6-(4-Difluoromethoxy-benzyloxy)-9-naphthalen-2-ylmethyl-2,3,4,9-tetrahydro-1H-b-carboline], the Ki was less than 3 µM. The value for `O=C(c1cccc2ccccc12)n1c2c(c3cc(OCc4ccc(OC(F)F)cc4)ccc31)CCNC2` [Compound 514, [6-(4-Difluoromethoxy-benzyloxy)-1,2,3,4-tetrahydro-b-carbolin-9-yl]-naphthalen-1-yl-methanone] was less than 3 µM; that for `O=C(c1ccc2ccccc2c1)n1c2c(c3cc(OCc4ccc(OC(F)F)cc4)ccc31)CCNC2` [Compound 515, [6-(4-Difluoromethoxy-benzyloxy)-1,2,3,4-tetrahydro-b-carbolin-9-yl]-naphthalen-2-yl-methanone] was less than 3 µM. In the case of `FC(F)Oc1ccccc1COc1ccc2c(c1)c1c(n2Cc2ccc3ccccc3c2)CNCC1` [Compound 516, 6-(2-Difluoromethoxy-benzyloxy)-9-naphthalen-2-ylmethyl-2,3,4,9-tetrahydro-1H-b-carboline], the Ki is less than 3 µM. For `O=C(c1cccc2ccccc12)n1c2c(c3cc(OCc4cc(C(F)(F)F)ccc4C(F)(F)F)ccc31)CCNC2` [Compound 517, [6-(2,5-Bis-trifluoromethyl-benzyloxy)-1,2,3,4-tetrahydro-b-carbolin-9-yl]-naphthalen-1-yl-methanone], the Ki was less than 3 µM. Consider `FC(F)Oc1ccccc1COc1ccc2c(c1)c1c(n2Cc2cccc3ccccc23)CNCC1` [Compound 518, 6-(2-Difluoromethoxy-benzyloxy)-9-naphthalen-1-ylmethyl-2,3,4,9-tetrahydro-1H-b-carboline], for which the Ki is less than 3 µM. In the case of `c1ccc2cc(COc3ccc4c(c3)c3c(n4Cc4ccc5ccccc5c4)CNCC3)ccc2c1` [Compound 519, 6-(Naphthalen-2-ylmethoxy)-9-naphthalen-2-ylmethyl-2,3,4,9-tetrahydro-1H-b-carboline], the Ki is less than 3 µM. Consider `Ic1ccccc1COc1ccc2c(c1)c1c(n2Cc2cccc3ccccc23)CNCC1` [Compound 520, 6-(2-Iodo-benzyloxy)-9-naphthalen-1-ylmethyl-2,3,4,9-tetrahydro-1H-b-carboline], for which the Ki was less than 3 µM. For the compound `Cc1c(COc2ccc3c(c2)c2c(n3Cc3cccc4ccccc34)CNCC2)cccc1C(F)(F)F` [Compound 521, 6-(2-Methyl-3-trifluoromethyl-benzyloxy)-9-naphthalen-1-ylmethyl-2,3,4,9-tetrahydro-1H-b-carboline], the Ki is less than 3 µM. For the compound `Cc1c(COc2ccc3c(c2)c2c(n3Cc3ccc4ccccc4c3)CNCC2)cccc1C(F)(F)F` [Compound 522, 6-(2-Methyl-3-trifluoromethyl-benzyloxy)-9-naphthalen-2-ylmethyl-2,3,4,9-tetrahydro-1H-b-carboline], the Ki was less than 3 µM. For `Cc1c(COc2ccc3c(c2)c2c(n3C(=O)c3cccc4ccccc34)CNCC2)cccc1C(F)(F)F` [Compound 523, [6-(2-Methyl-3-trifluoromethyl-benzyloxy)-1,2,3,4-tetrahydro-b-carbolin-9-yl]-naphthalen-1-yl-methanone], the Ki was less than 3 µM. For the compound `Cc1c(COc2ccc3c(c2)c2c(n3C(=O)c3ccc4ccccc4c3)CNCC2)cccc1C(F)(F)F` [Compound 524, [6-(2-Methyl-3-trifluoromethyl-benzyloxy)-1,2,3,4-tetrahydro-b-carbolin-9-yl]-naphthalen-2-yl-methanone], the Ki was less than 3 µM.

As to `COc1cc(COc2ccc3c(c2)c2c(n3Cc3cccc4ccccc34)CNCC2)cc(OC)c1` [Compound 525, 6-(3,5-Dimethoxy-benzyloxy)-9-naphthalen-1-ylmethyl-2,3,4,9-tetrahydro-1H-b-carboline], the Ki is less than 3 µM. Take `COc1cc(COc2ccc3c(c2)c2c(n3C(=O)c3cccc4ccccc34)CNCC2)cc(OC)c1` [Compound 526, [6-(3,5-Dimethoxy-benzyloxy)-1,2,3,4-tetrahydro-b-carbolin-9-yl]-naphthalen-1-yl-methanone]: the Ki was less than 3 µM. Regarding `COc1cc(COc2ccc3c(c2)c2c(n3C(=O)c3ccc4ccccc4c3)CNCC2)cc(OC)c1` [Compound 527, [6-(3,5-Dimethoxy-benzyloxy)-1,2,3,4-tetrahydro-b-carbolin-9-yl]-naphthalen-2-yl-methanone], the Ki is less than 3 µM. The value for `O=C(c1cccc2ccccc12)n1c2c(c3cc(OCc4ccccc4I)ccc31)CCNC2` [Compound 528, [6-(2-Iodo-benzyloxy)-1,2,3,4-tetrahydro-b-carbolin-9-yl]-naphthalen-1-yl-methanone] was less than 3 µM.

In the case of `O=C(c1cccc2ccccc12)n1c2c(c3cc(OCc4ccccc4OC(F)F)ccc31)CCNC2` [Compound 529, [6-(2-Difluoromethoxy-benzyloxy)-1,2,3,4-tetrahydro-b-carbolin-9-yl]-naphthalen-1-yl-methanone], the Ki is less than 3 µM. Regarding `O=C(c1ccc2ccccc2c1)n1c2c(c3cc(OCc4ccccc4OC(F)F)ccc31)CCNC2` [Compound 530, [6-(2-Difluoromethoxy-benzyloxy)-1,2,3,4-tetrahydro-b-carbolin-9-yl]-naphthalen-2-yl-methanone], the Ki is less than 3 µM. Take `N#Cc1ccccc1-c1ccc(COc2ccc3c(c2)c2c(n3Cc3ccc4ccccc4c3)CNCC2)cc1` [Compound 531, 4′-(9-Naphthalen-2-ylmethyl-2,3,4,9-tetrahydro-1H-b-carbolin-6-yloxymethyl)-biphenyl-2-carbonitrile]: the Ki was less than 3 µM. For `N#Cc1ccccc1-c1ccc(COc2ccc3c(c2)c2c(n3C(=O)c3cccc4ccccc34)CNCC2)cc1` [Compound 532, 4′-[9-(Naphthalene-1-carbonyl)-2,3,4,9-tetrahydro-1H-b-carbolin-6-yloxymethyl]-biphenyl-2-carbonitrile] the value was less than 3 µM; for `FC(F)(F)c1ccc(COc2ccc3c(c2)c2c(n3Cc3cccc4ccccc34)CNCC2)cc1` [Compound 533, 9-Naphthalen-1-ylmethyl-6-(4-trifluoromethyl-benzyloxy)-2,3,4,9-tetrahydro-1H-b-carboline], less than 3 µM; for `FC(F)(F)c1ccc(COc2ccc3c(c2)c2c(n3Cc3ccc4ccccc4c3)CNCC2)cc1` [Compound 534, 9-Naphthalen-2-ylmethyl-6-(4-trifluoromethyl-benzyloxy)-2,3,4,9-tetrahydro-1H-b-carboline], less than 3 µM. Consider `FC(F)(F)c1ccccc1COc1ccc2c(c1)c1c(n2Cc2ccc3ccccc3c2)CNCC1` [Compound 535, 9-Naphthalen-2-ylmethyl-6-(2-trifluoromethyl-benzyloxy)-2,3,4,9-tetrahydro-1H-b-carboline], for which the Ki is less than 3 µM. The value for `O=C(c1ccc2ccccc2c1)n1c2c(c3cc(OCc4ccc(C(F)(F)F)cc4)ccc31)CCNC2` [Compound 536, Naphthalen-2-yl-[6-(4-trifluoromethyl-benzyloxy)-1,2,3,4-tetrahydro-b-carbolin-9-yl]-methanone] was less than 3 µM; that for `FC(F)(F)c1cccc(COc2ccc3c(c2)c2c(n3Cc3ccc4ccccc4c3)CNCC2)c1` [Compound 537, 9-Naphthalen-2-ylmethyl-6-(3-trifluoromethyl-benzyloxy)-2,3,4,9-tetrahydro-1H-b-carboline] was less than 3 µM.
